#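 Cultured in 96-well plates, cells were exposed to test compound for 48 hours across five concentrations. The concentration for 50% growth inhibition is given as GI50. TGI: total growth inhibition.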
# Assays:
# Assay in all cases: NCI tumour cell line growth inhibition, 48 h
# M14 melanoma = tested on: M14 melanoma
# K-562 leukemia = tested on: K-562 leukemia
# NCI/ADR-RES ovarian = tested on: NCI/ADR-RES ovarian
# HOP-92 NSCLC = tested on: HOP-92 NSCLC
# T-47D breast = tested on: T-47D breast
# SK-MEL-2 melanoma = tested on: SK-MEL-2 melanoma
# 786-0 renal = tested on: 786-0 renal
# COLO 205 colon = tested on: COLO 205 colon
# NCI-H23 lung = tested on: NCI-H23 lung
# HL-60(TB) leukemia = tested on: HL-60(TB) leukemia
Compound,TGI (M14 melanoma),TGI (K-562 leukemia),TGI (NCI/ADR-RES ovarian),TGI (HOP-92 NSCLC),TGI (T-47D breast),TGI (SK-MEL-2 melanoma),TGI (786-0 renal),TGI (COLO 205 colon),TGI (NCI-H23 lung),TGI (HL-60(TB) leukemia),GI50 (M14 melanoma),GI50 (K-562 leukemia),GI50 (NCI/ADR-RES ovarian),GI50 (HOP-92 NSCLC),GI50 (T-47D breast),GI50 (SK-MEL-2 melanoma),GI50 (786-0 renal),GI50 (COLO 205 colon),GI50 (NCI-H23 lung),GI50 (HL-60(TB) leukemia)
COc1c2c(nc3ccccc13)-c1cc3c(c(=O)n1C2)COC(=O)C3(O)CC(=O)N1CCOCC1 (stereo not given),41.4 µM,> 100 µM,> 48.8 µM,63.4 µM,72.3 µM,64.6 µM,12.8 µM,> 86.5 µM,8.05 µM,17.6 µM,–,–,–,–,–,–,–,–,–,–
CCN(CC)Cc1ccc(Nc2nccc(-c3cnn4ncccc34)n2)cc1,0.0845 µM,> 25 µM,> 25 µM,0.0977 µM,6.6 µM,0.0704 µM,> 12.9 µM,0.0337 µM,0.126 µM,0.0229 µM,0.0291 µM,0.0682 µM,0.032 µM,0.00833 µM,0.0542 µM,0.0208 µM,0.0133 µM,0.00829 µM,0.0217 µM,0.00687 µM
O=C(/C=C/c1ccc([N+](=O)[O-])cc1)c1ccc2c3c(cccc13)CC2,> 100 µM,> 100 µM,> 100 µM,15.4 µM,> 24.8 µM,> 100 µM,> 88.9 µM,> 25.4 µM,> 100 µM,29 µM,> 64.6 µM,4.37 µM,20.8 µM,2.43 µM,1.57 µM,> 100 µM,10.2 µM,4.98 µM,29.1 µM,4.51 µM
Nc1nc(Nc2ccc(C3CCC(N4CCOCC4)CC3)cc2)nn1-c1ccccn1 (stereo not given),> 36.8 µM,> 100 µM,> 100 µM,> 27.5 µM,> 100 µM,> 61.8 µM,11.4 µM,> 100 µM,47.7 µM,9.96 µM,4.36 µM,2.83 µM,9.33 µM,1.59 µM,> 31.5 µM,7.77 µM,2.22 µM,5.17 µM,2.61 µM,2.55 µM
COc1cc(C(=O)NC2CCN(C)CC2)c(F)cc1Nc1ncc2c(n1)N(C1CCCC1)CC(F)(F)C(=O)N2C,5.89 µM,4 µM,13.6 µM,0.391 µM,13 µM,3.4 µM,11.7 µM,0.177 µM,3.4 µM,< 0.0197 µM,0.0235 µM,< 0.01 µM,< 0.0329 µM,0.0326 µM,< 0.0315 µM,< 0.01 µM,0.0435 µM,< 0.01 µM,< 0.0182 µM,< 0.01 µM
Cn1cc(C2=C(c3cccc(OCC(O)CO)c3)C(=O)NC2=O)c2ccccc21 (stereo not given),> 25 µM,> 25 µM,> 25 µM,> 25 µM,> 25 µM,> 25 µM,> 25 µM,> 25 µM,> 25 µM,> 25 µM,> 25 µM,> 25 µM,> 25 µM,> 25 µM,> 25 µM,> 25 µM,> 25 µM,> 25 µM,> 25 µM,> 25 µM
CCCCN(CCCC)c1ccc(C(=N)c2ccc(N(CCCC)CCCC)cc2)cc1,2.09 µM,1.1 µM,1.67 µM,1.46 µM,1.39 µM,1.31 µM,2.25 µM,1.05 µM,1.06 µM,1.95 µM,0.672 µM,0.287 µM,0.479 µM,0.235 µM,0.353 µM,0.387 µM,0.847 µM,0.322 µM,0.292 µM,0.479 µM
O=C(Nc1ccc(Cl)cc1)Nc1ccc(Nc2nncc3ccccc23)cc1,11.5 µM,26.4 µM,26.3 µM,7.26 µM,5.35 µM,7.7 µM,25.2 µM,9.58 µM,14.4 µM,7 µM,1.52 µM,1.68 µM,2.79 µM,2.55 µM,1.03 µM,2.7 µM,3.09 µM,2.77 µM,3.07 µM,2.42 µM
CS[C@]12C(=O)C[C@@]3(C)[C@@H](CC[C@]3(O)C(=O)CO)[C@@H]1CCC1=CC(=O)CC[C@@]12C,> 100 µM,> 100 µM,> 100 µM,> 100 µM,> 100 µM,> 100 µM,> 100 µM,> 100 µM,> 100 µM,> 100 µM,–,–,–,–,–,–,–,–,–,–
O=C1c2c(O)cccc2C(C2OC(CO)C(O)C(O)C2O)c2cc(CO)cc(O)c21 (stereo not given),> 100 µM,> 100 µM,> 100 µM,> 100 µM,> 100 µM,> 100 µM,> 100 µM,> 100 µM,> 100 µM,> 100 µM,–,–,–,–,–,–,–,–,–,–

# From PubChem BioAssay (NCI)
